Broadly, the GI50 is the concentration that inhibits growth by half.

The text below walks through data of ChEMBL document CHEMBL1201862, “PubChem BioAssay data set” (2004).

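Cells were grown in 96-well plates and exposed to each compound for 48 hours at five concentrations; endpoints were interpolated linearly between bracketing concentrations, or set to the highest concentration if not reached. The concentration for 50% growth inhibition is given as GI50.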 Active and inactive are the calls of the source. No stated cut-off is given here; in the data, active = GI50 up to about 1.1 µM and inactive = higher.

Test systems include MOLT-4; T47D; A498; HOP-92; K562; SF-268; NCI/ADR-RES; LOX IMVI; ACHN; CAKI-1; SNB-19; HCT-15; 786-0; PC-3; KM12; Malme-3M; HL-60; SNB-75; HCC 2998.
What all share (assay): DTP human tumour cell line panel, 48 h

As to `O=C(O)c1cnccc1-c1cc(=O)[nH]n1-c1ccccc1`, the GI50 in the experiment on MOLT-4 is 13.9 µM (inactive); in the experiment with T47D, 23.5 µM (inactive); in the experiment with A498, > 100 µM (inactive); with HOP-92, > 53.2 µM (inactive); in the experiment on K562, 10 µM (inactive); in the experiment with SF-268, > 83.2 µM (inactive). Further, the GI50 with NCI/ADR-RES was 27.6 µM (inactive); in the experiment with LOX IMVI, 6.76 µM (inactive); in the experiment with ACHN, 35.8 µM (inactive); with CAKI-1 it was 15.4 µM (inactive); with SNB-19, > 100 µM (inactive); in the experiment on HCT-15, 25.9 µM. For the same compound, the GI50 with 786-0 is > 79.6 µM (inactive); with PC-3, 16.3 µM (inactive); in the experiment with KM12 it was 9.75 µM (inactive); with Malme-3M, > 100 µM (inactive); with HL-60, 20.9 µM (inactive); in the experiment with SNB-75, > 68.5 µM (inactive). Moreover, the GI50 in the experiment on HCC 2998 is 25 µM (inactive).

As to `Cc1cc(S(=O)(=O)Nc2nc(N)n[nH]2)c(SCC(=O)O)cc1Cl`, the GI50 in the experiment with MOLT-4, with T47D, with A498, in the experiment with HOP-92, in the experiment on K562 and with SF-268 was > 10 µM (inactive) each time. Besides, the GI50 is > 10 µM (inactive) with NCI/ADR-RES; > 10 µM (inactive) with LOX IMVI; > 10 µM (inactive) with ACHN; > 10 µM (inactive) in the experiment with CAKI-1; > 10 µM (inactive) with SNB-19; greater than 10 µM with HCT-15. The GI50 with 786-0, with PC-3, with KM12, in the experiment with Malme-3M, in the experiment with HL-60 and with SNB-75 was > 10 µM (inactive) in each case. The GI50 with HCC 2998 was > 10 µM (inactive).

In the case of `CC1(C)CC2C(=O)c3ccccc3NC2c2ccccc21` (centres undefined), the GI50 in the experiment on MOLT-4 was 0.735 µM (active); in the experiment on T47D it was 4.51 µM (inactive); in the experiment with A498, 6.21 µM (inactive); in the experiment with HOP-92, > 24.6 µM (inactive); with K562 it was 1.09 µM (active); with SF-268, 14.6 µM (inactive). Moreover, the GI50 in the experiment on NCI/ADR-RES was 3.49 µM (inactive); in the experiment on LOX IMVI, 4.76 µM (inactive); in the experiment on ACHN, 14.4 µM (inactive); in the experiment with CAKI-1, 6.32 µM (inactive); in the experiment with SNB-19, 5.79 µM (inactive); in the experiment with HCT-15 it was 3.6 µM. The GI50 is 3.94 µM (inactive) in the experiment on 786-0; 3.6 µM (inactive) in the experiment on PC-3; 4.3 µM (inactive) in the experiment with KM12; 4.99 µM (inactive) with Malme-3M; 2.11 µM (inactive) with HL-60; 4.18 µM (inactive) in the experiment on SNB-75. For the same compound, the GI50 with HCC 2998 was 5.86 µM (inactive).

As to `CCS(=O)(=O)c1c2cc(OC)ccc2nc2ccc(OC)cc12`, the GI50 with MOLT-4, in the experiment with T47D, in the experiment with A498, in the experiment with HOP-92, in the experiment on K562 and in the experiment on SF-268 was > 100 µM (inactive) throughout. The GI50 in the experiment on NCI/ADR-RES is > 100 µM (inactive); with LOX IMVI it was > 100 µM (inactive); with ACHN it was > 100 µM (inactive); with CAKI-1 it was > 100 µM (inactive); in the experiment with SNB-19 it was > 100 µM (inactive); in the experiment on HCT-15 it was greater than 100 µM. Further, the GI50 in the experiment with 786-0, with PC-3, in the experiment on KM12, with Malme-3M, in the experiment with HL-60 and in the experiment with SNB-75 was > 100 µM (inactive) throughout. Also, the GI50 in the experiment with HCC 2998 is > 100 µM (inactive).

As for `CN(C)CCNc1ccc(C(=O)NCCCN(C)CCCNC(=O)c2ccc(NCCN(C)C)c3c(=O)c4ccccc4[nH]c23)c2[nH]c3ccccc3c(=O)c12`, the GI50 is < 0.01 µM (active) with MOLT-4; 0.119 µM (active) with T47D; 0.105 µM (active) in the experiment with A498; 0.0724 µM (active) in the experiment with HOP-92; 0.0332 µM (active) in the experiment with K562; < 0.01 µM (active) in the experiment on SF-268. The GI50 is 5.08 µM (inactive) in the experiment on NCI/ADR-RES; < 0.01 µM (active) with LOX IMVI; 0.0402 µM (active) in the experiment on ACHN; 5.6 µM (inactive) with CAKI-1; < 0.0118 µM (active) with SNB-19; 3.81 µM with HCT-15. Further, the GI50 is < 0.0119 µM (active) in the experiment on 786-0; 0.0783 µM (active) in the experiment on PC-3; 0.0333 µM (active) with KM12; 0.0467 µM (active) in the experiment with Malme-3M; 0.155 µM (active) in the experiment with HL-60; < 0.01 µM (active) in the experiment on SNB-75. Besides, in the experiment on HCC 2998, the GI50 is 0.0246 µM (active).

`COc1cc(C2c3cc4c(cc3OC3(OC)COC(=O)C23)OCO4)cc(OC)c1OC` (centres undefined): the GI50 with MOLT-4 is 0.456 µM (active); with T47D, > 100 µM (inactive); with A498 it was 0.281 µM (active); in the experiment with HOP-92, 3.22 µM (inactive); in the experiment on K562, 0.23 µM (active); in the experiment with SF-268 it was 0.514 µM (active). Further, the GI50 in the experiment with NCI/ADR-RES was 0.128 µM (active); in the experiment on LOX IMVI it was 0.188 µM (active); with ACHN it was 0.618 µM (active); in the experiment on CAKI-1, 0.568 µM (active); with SNB-19, 1.64 µM (inactive); with HCT-15, 0.286 µM. The GI50 in the experiment with 786-0 is 0.353 µM (active); in the experiment with PC-3, 0.285 µM (active); in the experiment on KM12, 0.129 µM (active); with Malme-3M, 0.605 µM (active); in the experiment on HL-60, 0.263 µM (active); with SNB-75, 0.311 µM (active). In the experiment on HCC 2998, the concentration for 50% growth inhibition (GI50) was 0.325 µM (active).

Turning to `CC1(C)C(=O)N(O)C(C)(C)N1O`, the GI50 in the experiment on MOLT-4, in the experiment on T47D, with A498, with HOP-92, with K562 and in the experiment on SF-268 was > 10 µM (inactive) each time. The GI50 was > 10 µM (inactive) in the experiment with NCI/ADR-RES; > 10 µM (inactive) with LOX IMVI; > 10 µM (inactive) in the experiment with ACHN; > 10 µM (inactive) in the experiment with CAKI-1; > 10 µM (inactive) with SNB-19; greater than 10 µM with HCT-15. Moreover, the GI50 with 786-0, with PC-3, in the experiment on KM12, with Malme-3M, in the experiment on HL-60 and in the experiment with SNB-75 was > 10 µM (inactive) each time. For the same compound, the GI50 with HCC 2998 was > 10 µM (inactive).

For `C[N+](C)(CCNC(=O)c1cccc2cc3ccccc3nc12)Cc1ccc([N+](=O)[O-])cc1`, the GI50 with MOLT-4, with T47D, in the experiment on A498, with HOP-92, in the experiment on K562 and in the experiment with SF-268 was > 100 µM (inactive) throughout. Also, the GI50 with NCI/ADR-RES is > 100 µM (inactive); with LOX IMVI it was > 100 µM (inactive); in the experiment on ACHN, > 100 µM (inactive); in the experiment on CAKI-1, > 100 µM (inactive); in the experiment on SNB-19 it was > 100 µM (inactive); with HCT-15 it was greater than 100 µM. In addition, the GI50 in the experiment on 786-0 is > 100 µM (inactive); with PC-3, > 100 µM (inactive); in the experiment on KM12, > 100 µM (inactive); with Malme-3M, 49.5 µM (inactive); in the experiment with HL-60 it was > 100 µM (inactive); in the experiment on SNB-75 it was > 100 µM (inactive). Further, the GI50 in the experiment with HCC 2998 is > 100 µM (inactive).

Consider `NC(=O)c1cccc(/N=c2\oc3ccc(Br)cc3cc2-c2nc3ccccc3[nH]2)c1`, for which the GI50 in the experiment on MOLT-4 was 12.5 µM (inactive); in the experiment on T47D, 10 µM (inactive); in the experiment on A498, 18.4 µM (inactive); in the experiment with HOP-92, 19 µM (inactive); in the experiment with K562 it was 18.8 µM (inactive); in the experiment on SF-268, 15.1 µM (inactive). Further, the GI50 in the experiment on NCI/ADR-RES is 12.1 µM (inactive); in the experiment on LOX IMVI it was 16.1 µM (inactive); in the experiment with ACHN, 17.3 µM (inactive); in the experiment with CAKI-1 it was 18 µM (inactive); in the experiment on SNB-19, 14.8 µM (inactive); in the experiment on HCT-15, 12.7 µM. In addition, the GI50 was 14.5 µM (inactive) in the experiment on 786-0; 14.3 µM (inactive) in the experiment on PC-3; 18.5 µM (inactive) with KM12; 22.5 µM (inactive) with Malme-3M; 18.1 µM (inactive) in the experiment with HL-60; 1.47 µM (inactive) with SNB-75. In addition, the GI50 in the experiment on HCC 2998 was 15.3 µM (inactive).

`O=C1CC(NCc2ccccc2)c2c(Cl)sc(Cl)c21` (centres undefined): the GI50 was 4.23 µM (inactive) with MOLT-4; 73.1 µM (inactive) with T47D; > 60.3 µM (inactive) in the experiment with A498; 34.8 µM (inactive) in the experiment with HOP-92; 16.6 µM (inactive) with K562; 16.3 µM (inactive) in the experiment with SF-268. Moreover, the GI50 in the experiment with NCI/ADR-RES is 28.1 µM (inactive); with LOX IMVI, 5.05 µM (inactive); in the experiment with ACHN, 22.3 µM (inactive); with CAKI-1, 23.2 µM (inactive); in the experiment with SNB-19, 33.7 µM (inactive); in the experiment on HCT-15, 20.1 µM. Besides, the GI50 in the experiment on 786-0 was 17.1 µM (inactive); in the experiment with PC-3, 17.3 µM (inactive); with KM12, 29.9 µM (inactive); in the experiment on Malme-3M, 18.5 µM (inactive); with HL-60 it was 17.2 µM (inactive); in the experiment with SNB-75, 29.8 µM (inactive). In addition, the GI50 with HCC 2998 is 17.4 µM (inactive).

On to `CN(C)c1cc2ccccc2oc1=O`, for which the GI50 in the experiment on MOLT-4, in the experiment with T47D, with A498, in the experiment on HOP-92, in the experiment on K562 and with SF-268 was > 100 µM (inactive) each time. The GI50 was > 100 µM (inactive) in the experiment with NCI/ADR-RES; > 100 µM (inactive) in the experiment with LOX IMVI; > 100 µM (inactive) in the experiment on ACHN; > 100 µM (inactive) with CAKI-1; > 100 µM (inactive) in the experiment with SNB-19; greater than 100 µM in the experiment on HCT-15. For the same compound, the GI50 with 786-0, in the experiment with PC-3, in the experiment with KM12, in the experiment with Malme-3M, in the experiment on HL-60 and with SNB-75 was > 100 µM (inactive) in each case. Also, the GI50 in the experiment with HCC 2998 was > 100 µM (inactive).
